Reference: patent US11992488B2, “Vasoconstriction compositions and methods of use” (Eye Therapies, LLC, priority 2008, dated 2024)
Where two headings read alike, the source gives them in different places.

Key:
[1] = tested on: over-responders; settings: contact lenses soaked in 0.008% brimonidine, of 100 Subjects (over-responders)
Excerpt: Contact lenses are often provided as daily wear lenses stored in a blisterpack solution.

[2] = tested on: under-responders; settings: of 100 Subjects (under-responders)
[3] = tested on: patient with an ocular condition of moderate hyperemia; assay: FIGS. 5A-C: reversal of pre-induced rebound hyperemia; type: in vivo, human; settings: brimonidine at […], right eye after VISINE Original, FIG. 5C
Excerpt: FIG. 5A is a baseline visual appearance of two eyes of a patient with an ocular condition.

[4] = tested on: over-responders wearing contact lenses; settings: 0.008% brimonidine while wearing contact lenses, of 100 Subjects (over-responders)
Excerpt: Contact lenses provide a reservoir to the surface of the eye allowing drugs to remain longer on the eye and increase their effectiveness.

[5] = FIG. 2
[6] = tested on: over-responders; settings: of 100 Subjects (over-responders)
[7] = tested on: patient with an ocular condition; settings: brimonidine at 0.01% to […] vs tetrahydrozoline 0.05%, oxymetazoline […], naphazoline […]; one patient, baseline redness 4/4
Excerpt: In an average clinical situation, baseline redness is at 1-1.5/4.

[8] = tested on: patients with chronic red eyes; assay: Example 5: chronic red eyes, patient satisfaction assessment; type: in vivo, human; settings: eld brimonidine at […], drops twice a day for three to five weeks, seven patients
Protocol: The treatment was through drops twice a day for three to five weeks. At the end, patient satisfaction assessment was conducted.

[9] = 0.037% brimonidine after wash-out

Brc1c(N=C2NCCN2)ccc2nccnc12.O=C(O)C(O)C(O)C(=O)O [brimonidine, 5-bromo-6-(2-imidazolidinylideneamino) quinoxaline L-tartrate]
Reduced Redness [1]: 95 | Whitening [1]: 95 | Reduced Redness [2, 9]: 95 | Whitening [2, 9]: 95 | Reduced Redness ([2]; […] brimonidine): 35 | Whitening ([2]; […] brimonidine): 35 | reversal of induced rebound hyperemia [3]: reversing the VISINE Original® induced rebound hyperemia | Reduced Redness [4]: 95 | Whitening [4]: 95 | concentration at which intraocular pressure reduction is at its maximum [5]: about 0.09% | Reduced Redness ([6]; […] brimonidine after wash-out): 95 | Whitening ([6]; […] brimonidine after wash-out): 95 | Reduced Redness ([6]; […] brimonidine): 85 | Whitening ([6]; […] brimonidine): 85 | scleral whitening brightening effects [7]: significant scleral whitening brightening effects | patient-reported redness [8]: All patients reported reduced redness
